Here are results for two molecules from US20220354818A1, “METHODS FOR TREATING BRAIN INJURY OR COGNITIVE DYSFUNCTION BY PHARMACOLOGICAL ENHANCMENT OF M-TYPE POTASSIUM ION CURRENTS IN NEURONS” (Advanced Neuroresearch Therapeutics LLC, priority 2019, published 2022).

“Also recorded” adds a separate entry of the source.

The subject of assay [1] is mice subjected to one blunt TBI, pentylenetetrazol (PTZ). Put plainly: PTZ-induced seizure susceptibility after one blunt TBI (CCCI). Format: in vivo, mouse. As to conditions: RL648_81 at 0.1 mg/kg; PTZ 35 mg/kg s.c. fifth day post-TBI. From the text: Stimulation with PTZ induced the occurrence of clonic and tonic-clonic seizures in TBI-subjected mice.
Assay [2] concerns cortical neurons. Put plainly: In vivo two-photon calcium imaging of cortical neurons through a cranial window after TBI. As to conditions: living mouse brain. From the text: Referring now to FIG. 9, another embodiment of the present invention concerns in vivo imaging of intracellular calcium levels in neurons from living brain in vivo, as a reporter of activity/hyperactivity. The genetically-encoded calcium reporter, GCaMP6f, was used in transgenic mice in which the reporter is expressed in critical subsets of brain neurons, allowing in vivo recordings of neurons of living brain, as a reporter of activity/hyperactivity in cortex induced by TBI, the first event in the hypothesis of the present invention, which causes TBI-induced brain damage (See, e.g., FIG. 1). For these experiments two-photon confocal live imaging of mouse cortical neurons through a cortical window was used. Live video records of the activity of cortical neurons in mice before and after TBI were made.

Assay [3] deals with neurons of the dentate gyrus of the hippocampus. Nature of the assay: Ex vivo brain-slice calcium imaging (GCaMP6f) with kainic acid stimulation after TBI. The format is in vivo, mouse. Conditions: RL648_81 30 minutes after blunt TBI. On the procedure:
In another embodiment of the present invention, ex vivo imaging of intracellular calcium levels in neurons, which are a reporter of activity or hyper-activity of neurons, were assayed in the brain slices using transgenic mice expressing the genetically encoded indicator of calcium levels, GCaMP6f expressed only in neurons.
Turning now to FIG. 8, the chemo-convulsant, kainic acid (KA), was used to stimulate neurons from brain slices of the dentate gyms (DG) of the hippocampus (the part of the brain where most new memories are thought to form) from sham mice, mice subjected to a TBI but not drug or TBI followed by RL-648_81.

The test system of assay [4] is mice subjected to one blunt TBI (CCCI). Put plainly: Dosage optimization: spontaneous myoclonic seizures after one blunt TBI (CCCI). Conditions: RL648_81 0.03, 0.1 and 0.3 mg/kg i.p. once 30 minutes post-TBI. The format is in vivo, mouse. As for the experimental part:
An additional KCNQ2/3-specific compound, RL648_81 was also administered in the same manner (0.03 mg/kg, 0.1 mg/kg, and 0.3 mg/kg). […] To monitor the occurrence of spontaneous myoclonic seizures after, the mice were video/EEG monitored from the second to the fourth day after the TBI (72 hours total).

Assay [5] concerns sympathetic neuron. Nature of the assay: Action potential firing in a sympathetic neuron, current-clamp.
From the text: Various currents are applied in “current-clamp” mode 44 ranging from 50 pA to −100 pA, and the resulting AP firing recorded.

Regarding `CCOC(=O)Nc1ccc(NCc2ccc(C(F)(F)F)cc2)c(F)c1N` [RL648_81], in assay [1], the “occurrence of PTZ-induced seizures” value is recorded as “completely blocked the occurrence of PTZ-induced seizures”. For the same molecule, the “TBI-induced hyper-excitability in cortex imaged in vivo” value in assay [2] was “prevents TBI-induced hyper-excitability in cortex”. In addition, in assay [3], the “TBI-induced increase in hyper-activity in response to kainic acid stimulation (hippocampal slices, ex vivo)” value is “reduces the increased seizure susceptibility in brain slices; also recorded: completely abolished”. Also, the “occurrence of TBI-induced myoclonic seizures” value in assay [4] was “measurably reduced the occurrence of TBI-induced myoclonic seizures”.
As to `O=C1N(c2ccccc2)c2ccccc2C1(Cc1ccncc1)Cc1ccncc1` [leopardine], the “action potential firing in response to stimuli” value in assay [5] was “out-of-control AP firing”.
